Where only a bound is given, the exact number is not on record here.

The IC50 is the midpoint of a concentration-inhibition curve.

The target of the assay is T1, human Plk4 kinase domain (aa 2-275) (Homo sapiens, UniProt O00444).
T1 construct: purified 6×His-tagged human Plk4 kinase domain (aa 2-275); 6xHis; made in house; host or cells: E. coli
T1 sequence (O00444 2-275): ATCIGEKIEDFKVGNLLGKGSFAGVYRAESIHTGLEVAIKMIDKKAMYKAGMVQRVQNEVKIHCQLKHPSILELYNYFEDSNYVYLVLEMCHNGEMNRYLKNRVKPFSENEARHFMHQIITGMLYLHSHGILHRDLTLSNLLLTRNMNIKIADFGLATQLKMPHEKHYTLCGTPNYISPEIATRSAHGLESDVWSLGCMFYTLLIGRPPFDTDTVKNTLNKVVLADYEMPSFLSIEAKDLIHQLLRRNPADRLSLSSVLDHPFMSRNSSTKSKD
Nature of the assay: Plk4 kinase assay (ADP-Glo). It counts as biochemical. Particulars: Table 1. As for the experimental part:
Kinase assays. […] The Plk4 concentration in the final reaction was 2.5-10 nM with a final pH of 8.0. […] Reactions were allowed to proceed for 4-16 hours at 25° C. Detection was performed using ADP-Glo reagent (Promega), following manufacturer's instructions. Luminescence was measured on an Infinite M1000 plate reader (Tecan). Data were fit using Prism (GraphPad) and Kis were calculated from IC50 data using the Cheng and Prusoff equation (37) or the Copeland formalism for tight-binding inhibitors (38).
A general note: In ADP-Glo the light output rises with the ADP produced.
With `CCc1c(Nc2cc(C)[nH]n2)nc(Sc2ccc(NC(=O)C3CC3)cc2)nc1N1CCN(C)CC1`, the IC50 is more than 1000 nM.
As to `CC(=O)Nc1ccc(Sc2nc(Nc3cc(C)[nH]n3)c(C)c(N3CCCCC3)n2)cc1`, the half-maximal inhibitory concentration (IC50) was less than 1000 nM.
Take `COc1c(Nc2cc(C)[nH]n2)nc(Sc2ccc(NC(=O)C3CC3)cc2)nc1N1CCN(C(C)(C)C)CC1`: the concentration for half-maximal inhibition (IC50) was more than 1000 nM.
For `COCCN(C)c1nc(Sc2ccc(NC(C)=O)cc2)nc(Nc2cc(C)[nH]n2)c1C` the value was less than 1000 nM.
Take `COCCNc1nc(Sc2ccc(NC(C)=O)cc2)nc(Nc2cc(C)[nH]n2)c1C`: the concentration for half-maximal inhibition (IC50) was less than 1000 nM.
Next, `COc1c(Nc2cc(C)[nH]n2)nc(Sc2ccc(NC(=O)C3CCCC3)cc2)nc1N1CCOCC1`: less than 1000 nM.
For `CCN(CC)c1nc(Sc2ccc(NC(=O)C3CCCC3)cc2)nc(Nc2cc(C)[nH]n2)c1OC` the value was 100 to 1000 nM; for `CC(=O)Nc1ccc(Sc2nc(Nc3cc(C)[nH]n3)cc(N3CCN(CCN(C)C)CC3C)n2)cc1` (stereo not shown), less than 1000 nM; for `COc1c(Nc2cc(C)[nH]n2)nc(Sc2ccc(NC(C)=O)cc2)nc1C1=CCN(C)CC1`, less than 1000 nM.
Compound `CC(=O)Nc1ccc(Sc2nc(Nc3cc(C)[nH]n3)c3c(n2)C2(CC3)CCN(CCN(C)C)CC2)cc1` showed a half-inhibitory concentration (IC50) of less than 1000 nM.
Regarding `Cc1cc(Nc2nc(Sc3ccc([N+](=O)[O-])cc3)nc3c2CCC32CCN(CCN(C)C)CC2)n[nH]1`, the IC50 is less than 1000 nM.
For `Cc1cc(Nc2nc(Sc3ccc(N)cc3)nc3c2CCC32CCN(CCN(C)C)CC2)n[nH]1`, the IC50 is less than 1000 nM.
For `COc1c(Nc2cc(C)[nH]n2)nc(Sc2ccc(NC(C)=O)cc2)nc1N1CCN(CCN2CCCC2)CC1` the value was less than 1000 nM.
Next, `CCN(C)CCN1CCN(c2nc(Sc3ccc(NC(C)=O)cc3)nc(Nc3cc(C)[nH]n3)c2OC)CC1`: less than 1000 nM.
For `COc1c(Nc2cc(C)[nH]n2)nc(Sc2ccc(NC(C)=O)cc2)nc1N1CCN(CCN)CC1` the value was less than 1000 nM.
On to `CCN(CC)CCN1CCN(c2nc(Sc3ccc(NC(C)=O)cc3)nc(Nc3cc(C)[nH]n3)c2OC)CC1`, for which the 50% inhibitory concentration (IC50) is less than 1000 nM.
As to `COc1c(Nc2cc(C)[nH]n2)nc(Sc2ccc(NC(C)=O)cc2)nc1N1CCN(CCN2CCNCC2)CC1`, the concentration for half-maximal inhibition (IC50) is less than 1000 nM.
`COC(=O)Cc1cc(Nc2nc(SC)nc(N3CCN(CCN(C)C)CC3)c2OC)n[nH]1` gave a half-maximal inhibitory concentration (IC50) of more than 1000 nM.
Consider `COc1c(Nc2cc(CC(=O)O)[nH]n2)nc(SC)nc1N1CCN(CCN(C)C)CC1`, for which the half-maximal inhibitory concentration (IC50) was more than 1000 nM.
Next, `CNC(=O)Cc1cc(Nc2nc(SC)nc(N3CCN(CCN(C)C)CC3)c2OC)n[nH]1`: more than 1000 nM.
With `COc1c(Nc2cc(C)[nH]n2)nc(Sc2ccc(NC(C)=O)cc2)nc1N1CCN(CCN2CCC(O)CC2)CC1`, the IC50 lay within 100 to 1000 nM.
In the case of `COc1c(Nc2cc(C)[nH]n2)nc(Sc2ccc(NC(C)=O)cc2)nc1N1CCC(CCN2CCCCC2)CC1`, the IC50 fell in the range of 100 to 1000 nM.
For `COc1c(Nc2cc(C)[nH]n2)nc(Sc2ccc(NC(C)=O)cc2)nc1N1CCC(CC(=O)O)CC1` the value was less than 1000 nM; for `COc1c(Nc2cc(C)[nH]n2)nc(Sc2ccc(NC(C)=O)cc2)nc1N1CCN(CCN2CCN(C)CC2)CC1`, less than 1000 nM; for `COC(=O)CC1CCN(c2nc(Sc3ccc(NC(C)=O)cc3)nc(Nc3cc(C)[nH]n3)c2OC)CC1`, less than 1000 nM.
`COc1c(Nc2cc(C)[nH]n2)nc(Sc2ccc(NC(C)=O)cc2)nc1N1CCN(C(N)=O)CC1`: the IC50 is less than 1000 nM.
For `COc1c(Nc2cc(C)[nH]n2)nc(Sc2ccc(NC(C)=O)cc2)nc1N1CCN(CC(=O)O)CC1` the value was less than 1000 nM; for `COc1c(Nc2cc(C)[nH]n2)nc(Sc2ccc(NC(C)=O)cc2)nc1N1CCN(CC(N)=O)CC1`, less than 1000 nM.
Next, `COc1c(Nc2cc(C)[nH]n2)nc(Sc2ccc(NC(C)=O)cc2)nc1N1CC2CCC(C1)N2CCN(C)C`: less than 1000 nM.
For `COc1c(Nc2cc(C)[nH]n2)nc(Sc2ccc(NC(C)=O)cc2)nc1N1CCC(CC(N)=O)CC1` the value was less than 1000 nM; for `COc1c(Nc2cc(C)[nH]n2)nc(Sc2ccc(NC(C)=O)cc2)nc1N1CCN(C(=N)NO)CC1`, less than 1000 nM.
In the case of `COc1c(Nc2cc(C)[nH]n2)nc(Sc2ccc(NC(C)=O)cc2)nc1N1CCN(CCN(C)OC)CC1`, the 50% inhibitory concentration (IC50) is less than 1000 nM.
Next, `COc1c(Nc2cc(C)[nH]n2)nc(Sc2ccc(NC(C)=O)cc2)nc1N1CCN(CCNC(N)=O)CC1`: less than 1000 nM; `COc1c(Nc2cc(C)[nH]n2)nc(Sc2ccc(NC(C)=O)cc2)nc1N1CC(C)N(CCN(C)C)C(C)C1` (stereo not shown): less than 1000 nM; `COc1c(Nc2cc(C)[nH]n2)nc(Sc2ccc(NC(C)=O)cc2)nc1N1CCN(C(=N)N)CC1`: less than 1000 nM.
In the case of `COC(=O)CN1CCN(c2nc(Sc3ccc(NC(C)=O)cc3)nc(Nc3cc(C)[nH]n3)c2OC)CC1`, the half-maximal inhibitory concentration (IC50) is less than 1000 nM.
Next, `COc1c(Nc2cc(C)[nH]n2)nc(Sc2ccc(NC(C)=O)cc2)nc1N1CCN(CCN2CCCCCC2)CC1`: less than 1000 nM.
For `COc1c(Nc2cc(C)[nH]n2)nc(Sc2ccc(NC(C)=O)cc2)nc1N1CCN(CCN2CCCCCCC2)CC1` the value was less than 1000 nM; for `COc1c(Nc2cc(C)[nH]n2)nc(Sc2ccc(NC(C)=O)cc2)nc1N1CCN(CCNC(=N)N)CC1`, less than 1000 nM.
With `COC(=O)c1ccc(Sc2nc(Nc3cc(C)[nH]n3)c(OC)c(N3CCN(CCN(C)C)CC3)n2)cc1`, the IC50 is less than 1000 nM.
For `COc1c(Nc2cc(C)[nH]n2)nc(Sc2ccc(NC(C)=O)cc2)nc1N1CCN(CCN(C)C)CC1` the value was less than 1000 nM.
For `COc1c(Nc2cc(C)[nH]n2)nc(Sc2ccc(NC(C)=O)cc2)nc1N1CCC(CC(=O)N(C)C)CC1` the value was less than 1000 nM; for `COc1c(Nc2cc(C)[nH]n2)nc(Sc2ccc(NC(C)=O)cc2)nc1N1CCC(CC(=O)N2CCCCC2)CC1`, less than 1000 nM; for `COc1c(Nc2cc(C)[nH]n2)nc(Sc2ccc(NC(C)=O)cc2)nc1N1CC2CCC(C1)N2CCN1CCN(C)CC1`, less than 1000 nM.
Consider `COc1c(Nc2cc(C)[nH]n2)nc(Sc2ccc(C(C)=O)cc2)nc1N1CCN(CCN(C)C)CC1`, for which the IC50 was less than 1000 nM.
For `COc1c(Nc2cc(C)[nH]n2)nc(Sc2ccc(C(=O)N(C)C)cc2)nc1N1CCN(CCN(C)C)CC1` the value was less than 1000 nM; for `COc1c(Nc2cc(C)[nH]n2)nc(Sc2ccc(S(C)(=O)=O)cc2)nc1N1CCN(CCN(C)C)CC1`, less than 1000 nM; for `CNC(=O)c1ccc(Sc2nc(Nc3cc(C)[nH]n3)c(OC)c(N3CCN(CCN(C)C)CC3)n2)cc1`, less than 1000 nM.
For `COc1c(Nc2cc(C)[nH]n2)nc(Sc2ccc(NC(C)=O)cc2)nc1N1CCN(CCN(C)Cc2ccccc2)CC1` the value was less than 1000 nM; for `COc1c(Nc2cc(C)[nH]n2)nc(Sc2ccc(NC(C)=O)cc2)nc1N1CCN(CCN(C)C)CC1C` (stereo not shown), more than 1000 nM; for `COc1c(Nc2cc(C)[nH]n2)nc(Sc2ccc(NC(C)=O)cc2)nc1N1CCN(CCN(C)c2ccccc2)CC1`, less than 1000 nM.
Next, `COc1c(Nc2cc(C)[nH]n2)nc(Sc2ccc(NC(C)=O)cc2)nc1N1CCN(CCN2C3CCCC2CC3)CC1`: less than 1000 nM.
For `COc1c(Nc2cc(C)[nH]n2)nc(Sc2ccc([S+](C)[O-])cc2)nc1N1CCN(CCN(C)C)CC1` (stereo not shown), the concentration for half-maximal inhibition (IC50) was less than 1000 nM.
`COc1c(Nc2cc(C)[nH]n2)nc(Sc2ccc(NC(C)=O)cc2)nc1N1CC2CCC(C1)N2CCN1CCCCCCC1`: the concentration for half-maximal inhibition (IC50) was less than 1000 nM.
Next, `COc1c(Nc2cc(C)[nH]n2)nc(Sc2ccc(NC(C)=O)cc2)nc1N1CCN(CCS(C)(=O)=O)CC1`: less than 1000 nM; `COc1c(Nc2cc(C)[nH]n2)nc(Sc2ccc(NC(C)=O)cc2)nc1N1CCN(CCN2C3CCCC2CCC3)CC1`: less than 1000 nM.
Turning to `COc1c(Nc2ncc(C)s2)nc(Sc2ccc(NC(C)=O)cc2)nc1N1CCN(CCN(C)C)CC1`, the half-maximal inhibitory concentration (IC50) is less than 1000 nM.
For `COc1c(Nc2cc(CC(=O)Nc3cccc(F)c3)[nH]n2)nc(SC)nc1N1CCN(CCN(C)C)CC1` the value was more than 1000 nM.
In the case of `CC(=O)Nc1ccc(Sc2nc(Nc3cc(C)[nH]n3)c(C)c(C3CCN(CCN(C)C)CC3)n2)cc1`, the IC50 was less than 1000 nM.
Next, `COc1c(Nc2cc(C)[nH]n2)nc(Sc2ccc(S(C)(=O)=O)cc2)nc1N1CCN(CCN2CCN(C)CC2)CC1`: less than 1000 nM; `COc1c(Nc2cc(C)[nH]n2)nc(Sc2ccc(NS(C)(=O)=O)cc2)nc1N1CCN(CCN(C)C)CC1`: less than 1000 nM.
Next, `CCS(=O)(=O)c1ccc(Sc2nc(Nc3cc(C)[nH]n3)c(OC)c(N3CCN(CCN(C)C)CC3)n2)cc1`: less than 1000 nM; `COc1c(Nc2cc(C)[nH]n2)nc(Sc2ccc(S(=O)(=O)C(F)(F)F)cc2)nc1N1CCN(CCN(C)C)CC1`: less than 1000 nM.
Compound `COc1c(Nc2cc(C)[nH]n2)nc(Sc2ccc(S(=O)(=O)N(C)C)cc2)nc1N1CCN(CCN(C)C)CC1` displayed an IC50 of less than 1000 nM.
`CC(=O)Nc1ccc(Sc2nc(Nc3cc(C)[nH]n3)cc(C3CCN(CCN(C)C)CC3)n2)cc1`: the half-maximal inhibitory concentration (IC50) is 100 to 1000 nM.
Next, `COc1c(Nc2cc(C)[nH]n2)nc(Sc2ccc(S(=O)(=O)Cc3ccccc3)cc2)nc1N1CCN(CCN(C)C)CC1`: less than 1000 nM.
Turning to `COc1c(Nc2cc(C)[nH]n2)nc(Sc2ccc(S(=O)(=O)COCc3ccccc3)cc2)nc1N1CCN(CCN(C)C)CC1`, the 50% inhibitory concentration (IC50) is less than 1000 nM.
Regarding `COc1c(Nc2nccs2)nc(Sc2ccc(NC(C)=O)cc2)nc1N1CCN(CCN(C)C)CC1`, the IC50 is 100 to 1000 nM.
Turning to `COc1c(Nc2ncc(C)s2)nc(Sc2ccc(S(C)(=O)=O)cc2)nc1N1CCN(CCN(C)C)CC1`, the IC50 is less than 1000 nM.
Next, `COc1c(Nc2cc(C)[nH]n2)nc(Sc2ccc(S(C)(=O)=O)cc2)nc1C1CCN(CCN(C)C)CC1`: 100 to 1000 nM.

These data come from patent US10752612B2, “PLK4 inhibitors” (LUDWIG INSTITUTE FOR CANCER RESEARCH LTD, priority 2015, dated 2020).
